Literature values as cited in US20210213091A1, “LIPOPHILIC ACTIVE AGENT INFUSED TOBACCO LEAVES AND/OR TOBACCO MATERIALS AND METHODS OF USE THEREOF” (priority 2018, published 2021).

For `CC1=CC[C@H]2C[C@@H]1C2(C)C` [α-Pinene, (1S,5S)-2,6,6-Trimethylbicyclo[3.1.1]hept-2-ene], the human pulmonary uptake is listed as 60%.
